Reference: patent publication US20250319046A1, “PHENYLALANINE-BASED LAT1 INHIBITORS AND USES THEREOF” (MAXYMUNE THERAPEUTICS, INC., priority 2024, published 2025)
pIC50: −log10 of the molar value.

What follows are molecules tested against LAT1 (Homo sapiens (Human), UniProt Q01650) (assay: LAT1 uptake inhibition assay: [3H]-gabapentin competition uptake in LN229 cells). Conditions: [3H]-gabapentin uptake, 15 min incubation in PBS, read-out: IC50, the concentration of test compound at which the [3H]-GP uptake was inhibited by 50%.
Assay type: cell-based
Method: LAT1 Uptake Inhibition Assay
The ability of compounds to interact with LAT1 was measured using a radiolabeled competition uptake assay with [^3H]-Gabapentin ([^3H]-GP) (Perkin Elmer) in 96-well plates with LN229 cells (ATCC®). Ten (10)×10^3 (10,000) cells/well were plated in white, clear bottom plates and were allowed to grow for three (3) days. On the fourth day, the cells were washed and then incubated with 50,000 counts per minute (cpm) of [^3H]-GP in phosphate buffered saline (PBS) (VWR International) with increasing concentrations of test compounds in at least triplicate for 15 min. At end of the assay time, the incubation solution was removed, and plates were washed three times (3×) with 100 μL of ice-cold PBS buffer. One-hundred fifty (150) […] of scintillation fluid (VWR International) was added to each well, and the radioactivity retained within the cells was measured on a 96-well scintillation counter. Background uptake ([^3H]-GP uptake in the presence of 10 mM non-radiolabeled gabapentin (GP)) (MedKoo) was subtracted and data were normalized to the DMSO control ([^3H]-GP uptake in the absence of any competitor). Data were fitted to the Michaelis-Menten equation using GraphPad Prism (Version 8.2.0).

Chain of LAT1 (Q01650 whole entry): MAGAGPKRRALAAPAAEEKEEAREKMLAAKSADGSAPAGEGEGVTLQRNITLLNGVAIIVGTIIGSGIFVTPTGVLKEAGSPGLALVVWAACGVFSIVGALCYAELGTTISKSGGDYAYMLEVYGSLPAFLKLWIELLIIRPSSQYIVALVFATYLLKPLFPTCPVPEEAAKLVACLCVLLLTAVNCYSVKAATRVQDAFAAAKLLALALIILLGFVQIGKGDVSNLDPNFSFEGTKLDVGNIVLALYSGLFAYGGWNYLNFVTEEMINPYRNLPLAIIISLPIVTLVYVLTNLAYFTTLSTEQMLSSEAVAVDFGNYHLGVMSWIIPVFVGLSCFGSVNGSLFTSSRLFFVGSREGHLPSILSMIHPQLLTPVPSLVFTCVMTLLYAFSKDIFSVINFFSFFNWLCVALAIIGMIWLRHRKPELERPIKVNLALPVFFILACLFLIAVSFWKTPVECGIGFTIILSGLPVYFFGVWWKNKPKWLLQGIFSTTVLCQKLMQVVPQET
Chain of LAT1 (P08195 whole entry partner): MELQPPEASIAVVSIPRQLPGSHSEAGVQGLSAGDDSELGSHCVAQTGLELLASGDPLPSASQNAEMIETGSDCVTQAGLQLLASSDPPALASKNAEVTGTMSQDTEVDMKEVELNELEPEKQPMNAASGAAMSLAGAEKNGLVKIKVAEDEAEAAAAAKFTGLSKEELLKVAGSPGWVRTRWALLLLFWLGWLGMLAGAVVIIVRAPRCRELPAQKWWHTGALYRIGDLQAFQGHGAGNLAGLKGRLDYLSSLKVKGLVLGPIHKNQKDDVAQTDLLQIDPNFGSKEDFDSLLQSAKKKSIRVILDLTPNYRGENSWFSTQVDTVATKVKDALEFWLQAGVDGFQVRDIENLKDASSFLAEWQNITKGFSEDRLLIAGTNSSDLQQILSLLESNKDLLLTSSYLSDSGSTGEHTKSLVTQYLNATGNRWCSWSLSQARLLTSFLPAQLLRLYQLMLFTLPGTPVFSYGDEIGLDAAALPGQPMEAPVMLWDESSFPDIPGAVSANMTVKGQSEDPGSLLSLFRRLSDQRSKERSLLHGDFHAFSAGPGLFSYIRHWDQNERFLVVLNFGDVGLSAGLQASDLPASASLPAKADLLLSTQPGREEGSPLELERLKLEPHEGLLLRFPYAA

Compound	pIC50
Cc1ccc(NS(=O)(=O)C2CCCCC2)cc1C[C@H](N)C(=O)O [Compound 26, (S)-2-Amino-3-(5-(cyclohexanesulfonamido)-2-methylphenyl)propanoic Acid]	6.00 to 7.00
Cc1ccc(NS(=O)(=O)c2ccc(Cl)c3nonc23)cc1C[C@H](N)C(=O)O [Compound 24, (S)-2-Amino-3-(5-((7-chlorobenzo[c][1,2,5]oxadiazole)-4-sulfonamido)-2-methylphenyl)propanoic Acid]	5.00 to 6.00
Cc1ccc(S(=O)(=O)N(C)c2ccc(Cl)cc2)cc1C[C@H](N)C(=O)O [Compound 84, (S)-2-Amino-3-(5-(N-(4-chlorophenyl)-N-methylsulfamoyl)-2-methylphenyl)propanoic Acid]	7.00 to 7.70
CN(C)c1cccc2c(S(=O)(=O)Nc3ccc(C[C@H](N)C(=O)O)cc3)cccc12 [Compound 4, (S)-2-amino-3-(4-((5-(dimethylamino)naphthalene)-1-sulfonamido)phenyl)propanoic acid]	5.00 to 6.00
Cc1ccc(NS(=O)(=O)c2cccc3nonc23)cc1C[C@H](N)C(=O)O [Compound 25, (S)-2-Amino-3-(5-(benzo[c][1,2,5]oxadiazole-4-sulfonamido)-2-methylphenyl)propanoic Acid]	5.00 to 6.00
Cc1ccc(NS(=O)(=O)c2cccnc2)cc1C[C@H](N)C(=O)O [Compound 11, (S)-2-Amino-3-(2-methyl-5-(pyridine-3-sulfonamido)phenyl)propanoic Acid]	5.00 to 6.00
COc1ccc(S(=O)(=O)Nc2ccc(C)c(C[C@H](N)C(=O)O)c2)cc1 [Compound 57, (S)-2-Amino-3-(5-((4-methoxyphenyl)sulfonamido)-2-methylphenyl)propanoic Acid]	6.00 to 7.00
Cc1ccc(NS(=O)(=O)c2cccc3ncccc23)cc1C[C@H](N)C(=O)O [Compound 9, (S)-2-Amino-3-(2-methyl-5-(quinoline-5-sulfonamido)phenyl)propanoic Acid]	5.00 to 6.00
Cc1ccc(NS(=O)(=O)C(C)C)cc1C[C@H](N)C(=O)O [Compound 20, (S)-2-Amino-3-(2-methyl-5-((1-methylethyl)sulfonamido)phenyl)propanoic Acid]	5.00 to 6.00
Cc1ccc(S(=O)(=O)Cc2ccccc2)cc1C[C@H](N)C(=O)O [Compound 65, (S)-2-Amino-3-(5-(benzylsulfonyl)-2-methylphenyl)propanoic Acid]	6.00 to 7.00
N[C@@H](Cc1cccc(S(=O)(=O)N2CCCCC2)c1)C(=O)O [Compound 78, (S)-2-Amino-3-(3-(piperidin-1-ylsulfonyl)phenyl)propanoic Acid]	5.00 to 6.00
N[C@@H](Cc1ccccc1S(=O)(=O)Nc1ccc(Cl)cc1)C(=O)O [Compound 81, (S)-2-Amino-3-(2-(N-(4-chlorophenyl)sulfamoyl)phenyl)propanoic Acid]	5.00 to 6.00
CN(C)c1cccc2c(S(=O)(=O)Nc3ccc(Cl)c(C[C@H](N)C(=O)O)c3)cccc12 [Compound 15, (S)-2-Amino-3-(2-chloro-5-((5-(dimethylamino)naphthalene)-1-sulfonamido)phenyl)propanoic Acid]	6.00 to 7.00
Cc1ccc(NS(=O)(=O)c2ccc(-c3ccccc3)cc2)cc1C[C@H](N)C(=O)O [Compound 17, (S)-3-(5-([1,1′-Biphenyl]-4-sulfonamido)-2-methylphenyl)-2-aminopropanoic Acid]	6.00 to 7.00
Cc1ccc(S(=O)(=O)Nc2cccc3ncccc23)cc1C[C@H](N)C(=O)O [Compound 50, (S)-2-Amino-3-(2-methyl-5-(N-(quinolin-5-yl)sulfamoyl)phenyl)propanoic Acid]	6.00 to 7.00
CS(=O)(=O)Nc1cccc(C[C@H](N)C(=O)O)c1 [Compound 68, (S)-2-Amino-3-(3-(methylsulfonamido)phenyl)propanoic Acid]	≤ 5.00
CN(C)c1cccc2c(S(=O)(=O)Nc3cccc(C[C@H](N)C(=O)O)c3)cccc12 [Compound 3, (S)-2-Amino-3-(3-((5-(dimethylamino)naphthalene)-1-sulfonamido)phenyl)propanoic Acid]	6.00 to 7.00
